Data as given in article PMC10587151, “Ligand activation mechanisms of human KCNQ2 channel” (Nature Communications, 2023).
Counter-ions that a name gives are not always drawn. Like-named read-outs stand apart in the source and are kept apart here.

How the values were obtained:
KCNQ2 [1] = target: T1, KCNQ2 (Homo sapiens, UniProt O43526); test: cryo-EM structure ([…] Å); whole-cell patch clamp in CHO cells for the EC50; assay type: cell-based; design: residues 64–674; with calmodulin (CaM)
KCNQ2 [2] = target: T2, KCNQ2 (Homo sapiens, UniProt O43526, F104A); test: cryo-EM structure ([…] Å), closed state; assay type: binding
T2 construct: residues 64–674; with calmodulin (CaM)

KCNQ2 [3] = target: T1, KCNQ2; test: cryo-EM structure ([…] Å); whole-cell patch clamp in CHO cells for the EC50; assay type: cell-based; design: wild-type human KCNQ2 cDNA in pcDNA5/FRT, expressed in CHO cells, whole-cell patch clamp; no CaM co-transfection stated; not the 64-674 cryo-EM construct
Target sequence in this assay (O43526 whole entry, the tested form may be a part): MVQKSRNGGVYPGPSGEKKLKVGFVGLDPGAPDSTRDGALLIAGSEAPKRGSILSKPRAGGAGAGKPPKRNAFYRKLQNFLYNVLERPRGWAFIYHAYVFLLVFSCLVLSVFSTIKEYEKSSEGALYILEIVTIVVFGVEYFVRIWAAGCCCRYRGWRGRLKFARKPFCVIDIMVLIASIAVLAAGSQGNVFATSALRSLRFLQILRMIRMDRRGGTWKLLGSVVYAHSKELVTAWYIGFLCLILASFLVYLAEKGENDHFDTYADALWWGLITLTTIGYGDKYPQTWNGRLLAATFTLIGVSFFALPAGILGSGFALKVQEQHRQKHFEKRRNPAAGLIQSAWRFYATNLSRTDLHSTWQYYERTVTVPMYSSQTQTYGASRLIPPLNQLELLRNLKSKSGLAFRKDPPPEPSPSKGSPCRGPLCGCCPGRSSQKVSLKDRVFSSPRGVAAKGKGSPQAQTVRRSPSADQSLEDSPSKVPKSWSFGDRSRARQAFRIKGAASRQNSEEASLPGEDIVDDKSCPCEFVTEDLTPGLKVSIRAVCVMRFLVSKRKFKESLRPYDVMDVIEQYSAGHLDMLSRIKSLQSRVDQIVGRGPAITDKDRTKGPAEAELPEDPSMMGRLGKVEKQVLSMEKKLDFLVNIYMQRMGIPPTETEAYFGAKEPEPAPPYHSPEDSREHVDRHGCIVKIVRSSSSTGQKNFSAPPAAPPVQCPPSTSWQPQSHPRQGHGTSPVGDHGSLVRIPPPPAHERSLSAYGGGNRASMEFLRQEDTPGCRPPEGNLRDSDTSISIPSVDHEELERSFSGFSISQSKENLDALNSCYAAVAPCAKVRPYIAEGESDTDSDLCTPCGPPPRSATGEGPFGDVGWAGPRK

KCNQ2 [4] = target: T1, KCNQ2; test: cryo-EM structure ([…] Å), with CBD co-bound; design: residues 64–674; with calmodulin (CaM)
KCNQ2 [5] = target: T2, KCNQ2; test: cryo-EM structure ([…] Å), open state, with one CBD co-bound; assay type: binding
[6] = target: the molecule itself; test: cryo-EM structure; KCNQ2 (strep tag) and CaM (His tag) co-expressed in HEK293S, complex purified on Strep-Tactin and Superose 6 in 20 mM Tris pH 8.0, 150 mM KCl, 0.02% GDN; incubated with 0.25 mM CBD, 0.15 mM HN37 and/or 1 mM PIP2; C4 symmetry; closed and open states

T2 sequence (O43526 64-674 F104A): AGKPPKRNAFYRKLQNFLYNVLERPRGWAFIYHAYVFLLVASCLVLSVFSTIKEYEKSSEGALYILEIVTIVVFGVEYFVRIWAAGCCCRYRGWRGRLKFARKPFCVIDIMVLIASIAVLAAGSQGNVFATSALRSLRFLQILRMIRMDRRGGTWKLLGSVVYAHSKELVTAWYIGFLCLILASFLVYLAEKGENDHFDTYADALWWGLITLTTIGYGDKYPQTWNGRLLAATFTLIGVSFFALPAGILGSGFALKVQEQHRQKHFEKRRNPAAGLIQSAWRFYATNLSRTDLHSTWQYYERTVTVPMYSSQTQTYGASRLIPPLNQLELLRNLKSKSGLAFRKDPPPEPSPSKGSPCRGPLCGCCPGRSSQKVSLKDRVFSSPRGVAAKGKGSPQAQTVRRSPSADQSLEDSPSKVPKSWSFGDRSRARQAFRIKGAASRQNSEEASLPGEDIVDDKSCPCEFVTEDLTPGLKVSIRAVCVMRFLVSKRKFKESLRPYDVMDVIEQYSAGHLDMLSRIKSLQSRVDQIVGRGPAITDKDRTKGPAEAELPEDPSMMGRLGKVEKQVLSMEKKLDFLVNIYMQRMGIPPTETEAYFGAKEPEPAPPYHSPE

Work on `C#CCN(Cc1ccc(F)cc1)c1cc(C)c(NC(=O)OC)c(C)c1` [HN37] yielded an EC50 (KCNQ2 [1]) of 28.5 ± 2.99 nM.

`C=C(C)[C@@H]1CCC(C)=C[C@H]1c1c(O)cc(CCCCC)cc1O` [CBD, cannabidiol] was tested, and the “cryo-EM structure (2.7 Å), closed state” value (KCNQ2 [2]) was “In both maps, CBDA molecules maintain strong densities but those for CBDB are barely observed” and the EC50 (KCNQ2 [3]) was 4500 ± 1790 nM.

In the case of `CCCCCCCC(=O)OC[C@H](COP(=O)(O)O[C@@H]1[C@H](O)[C@H](O)[C@@H](OP(=O)(O)O)[C@H](OP(=O)(O)O)[C@H]1O)OC(=O)CCCCCCC` [PIP2, 1,2-dioctanoyl-sn-glycero-3-phospho-(1’-myo-inositol-4’,5’-bisphosphate) (ammonium salt)], the “cryo-EM structure (3.1 Å), with CBD co-bound” value (KCNQ2 [4]) is reported as “between VSD and PD, one PIP2 molecule is assigned, with its fatty acid chains switched by S1III/S4III and S5II” and the “cryo-EM structure (3.5 Å), open state, with one CBD co-bound” value (KCNQ2 [5]) is reported as “KCNQ2-CaMF104A-CBD-PIP2-II is in an open state with the PIP2 bound”.

B1: human KCNQ2 (residues 64-674, C-terminal strep tag) (domain or fragment, UniProt O43526-1 64-674, looked up)
chain: AGKPPKRNAFYRKLQNFLYNVLERPRGWAFIYHAYVFLLVFSCLVLSVFSTIKEYEKSSEGALYILEIVTIVVFGVEYFVRIWAAGCCCRYRGWRGRLKFARKPFCVIDIMVLIASIAVLAAGSQGNVFATSALRSLRFLQILRMIRMDRRGGTWKLLGSVVYAHSKELVTAWYIGFLCLILASFLVYLAEKGENDHFDTYADALWWGLITLTTIGYGDKYPQTWNGRLLAATFTLIGVSFFALPAGILGSGFALKVQEQHRQKHFEKRRNPAAGLIQSAWRFYATNLSRTDLHSTWQYYERTVTVPMYSSQTQTYGASRLIPPLNQLELLRNLKSKSGLAFRKDPPPEPSPSKGSPCRGPLCGCCPGRSSQKVSLKDRVFSSPRGVAAKGKGSPQAQTVRRSPSADQSLEDSPSKVPKSWSFGDRSRARQAFRIKGAASRQNSEEASLPGEDIVDDKSCPCEFVTEDLTPGLKVSIRAVCVMRFLVSKRKFKESLRPYDVMDVIEQYSAGHLDMLSRIKSLQSRVDQIVGRGPAITDKDRTKGPAEAELPEDPSMMGRLGKVEKQVLSMEKKLDFLVNIYMQRMGIPPTETEAYFGAKEPEPAPPYHSPE
notes: Human voltage-gated potassium channel KCNQ2, N- and C-terminal regions truncated, residues 64-674; numbers count on: NP_004509.2; The vector is a modified pEZT-BM; also called WT KCNQ2; KCNQ2 of the KCNQ2-CaM complex; source: HEK293S suspension cells, BacMam baculovirus, co-expressed with CaM, purified (Strep-Tactin, Superose 6); not shown: strep tag, C-terminal, kept
With B1 the “stoichiometry N” value [6] was 4.
